Among the data in patent US20080287477A1, “Novel Compounds as Modulators of Ppar” (KALYPSYS, INC., priority 2006, published 2008) are EC50 values, retold here.

Type in all cases: cell-based, murine and human
Holding throughout (conditions): 20-24 hours treatment

Test [1] concerns the target T1, PPAR-alpha (UniProt Q07869).
T1 sequence (Q07869 1-468): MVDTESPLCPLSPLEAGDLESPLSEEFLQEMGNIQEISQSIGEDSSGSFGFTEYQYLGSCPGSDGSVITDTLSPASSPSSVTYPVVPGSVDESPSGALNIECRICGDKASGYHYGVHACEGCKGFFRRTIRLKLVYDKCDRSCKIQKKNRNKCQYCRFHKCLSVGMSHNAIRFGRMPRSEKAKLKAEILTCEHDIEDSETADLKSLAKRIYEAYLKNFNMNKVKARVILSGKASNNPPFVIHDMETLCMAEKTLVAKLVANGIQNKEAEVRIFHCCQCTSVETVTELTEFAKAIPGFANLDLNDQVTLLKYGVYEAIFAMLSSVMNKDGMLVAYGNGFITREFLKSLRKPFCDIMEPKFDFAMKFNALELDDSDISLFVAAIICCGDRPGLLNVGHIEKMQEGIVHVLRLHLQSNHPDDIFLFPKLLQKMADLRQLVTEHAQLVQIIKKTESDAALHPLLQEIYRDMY
The test can be described thus: Transient transfection transactivation assay in CV-1 cells, GAL4-PPAR-alpha chimera, luciferase reporter. The source says:
(§1) Compounds may be screened for functional potency in transient transfection assays in CV-1 cells for their ability to activate the PPAR subtypes (transactivation assay). A previously established chimeric receptor system was utilized to allow comparison of the relative transcriptional activity of the receptor subtypes on the same synthetic response element and to prevent endogenous receptor activation from complicating the interpretation of results. See, for example, Lehmann, J. M.; Moore, L. B.; Smith-Oliver, T. A: Wilkinson, W. O.; Willson, T. M.; Kliewer, S. A., An antidiabetic thiazolidinedione is a high affinity ligand for peroxisome proliferator-activated receptor […], J. Biol. Chem., 1995, 270, 12953-6. The ligand binding domains for murine and human PPAR-alpha, PPAR-gamma, and PPAR-delta are each fused to the yeast transcription factor GAL4 DNA binding domain. CV-1 cells were transiently transfected with expression vectors for the respective PPAR chimera along with a reporter construct containing four or five copies of the GAL4 DNA binding site driving expression of luciferase. After 8-16 h, the cells are replated into multi-well assay plates and the media is exchanged to phenol-red free DME medium supplemented with 5% delipidated coif serum. 4 hours after replating, cells were treated with either compounds or 1% DMSO for 20-24 hours. Luciferase activity was then assayed with Britelite (Perkin Elmer) following the manufacturer's protocol and measured with either the Perkin Elmer Viewlux or Molecular Devices Acquost (see, for example. Kliewer, S. A., et. al. Cell 1995, 83, 813-819). Rosiglitazone is used as a positive control in the PPARγ assay. Wy-14643 and GW7647 is used as a positive control in the […]. GW50156 is used as the positive control in the PPARδ assay.
Examples 1-20 were assayed to measure their biological activity with respect to their efficacy for modulating PPAR-alpha, PPAR-gamma, and PPAR-delta. EC50 values are set forth below in Table 1.

Test [2] concerns the target T2, PPAR-gamma (UniProt P37231).
T2 sequence (P37231 1-505): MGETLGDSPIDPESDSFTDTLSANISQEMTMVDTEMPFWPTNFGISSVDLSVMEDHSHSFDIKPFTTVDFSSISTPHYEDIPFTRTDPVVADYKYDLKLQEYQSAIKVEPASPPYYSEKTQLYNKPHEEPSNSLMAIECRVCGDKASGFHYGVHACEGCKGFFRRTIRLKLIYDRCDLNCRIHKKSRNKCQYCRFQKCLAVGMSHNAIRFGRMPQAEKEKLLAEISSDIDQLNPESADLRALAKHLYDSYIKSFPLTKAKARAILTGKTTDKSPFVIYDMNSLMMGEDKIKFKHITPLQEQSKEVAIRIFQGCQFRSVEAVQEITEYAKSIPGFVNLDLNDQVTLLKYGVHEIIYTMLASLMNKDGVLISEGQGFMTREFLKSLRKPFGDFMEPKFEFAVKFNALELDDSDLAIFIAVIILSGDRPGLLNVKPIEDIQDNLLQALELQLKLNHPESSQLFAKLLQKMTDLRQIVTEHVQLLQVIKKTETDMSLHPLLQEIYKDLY
Put plainly: Transient transfection transactivation assay in CV-1 cells, GAL4-PPAR-gamma chimera, luciferase reporter.
From the text: as §1
(§2) EC50 values are set forth below in Table 1.

Test [3] deals with T3, PPAR-delta (UniProt Q03181).
T3 sequence (Q03181 1-441): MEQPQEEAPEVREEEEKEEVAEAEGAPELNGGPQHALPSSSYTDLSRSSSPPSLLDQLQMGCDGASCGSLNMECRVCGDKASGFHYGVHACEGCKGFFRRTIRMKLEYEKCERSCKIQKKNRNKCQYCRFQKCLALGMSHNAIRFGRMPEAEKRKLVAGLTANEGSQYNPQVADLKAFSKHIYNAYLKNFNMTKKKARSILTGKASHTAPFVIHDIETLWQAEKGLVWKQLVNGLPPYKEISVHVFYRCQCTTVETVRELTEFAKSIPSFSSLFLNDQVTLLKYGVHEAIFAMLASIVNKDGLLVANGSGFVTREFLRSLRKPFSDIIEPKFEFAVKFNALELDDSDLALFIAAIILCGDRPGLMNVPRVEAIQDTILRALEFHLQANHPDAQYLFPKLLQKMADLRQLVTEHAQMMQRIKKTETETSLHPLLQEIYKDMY
Put plainly: Transient transfection transactivation assay in CV-1 cells, GAL4-PPAR-delta chimera, luciferase reporter.
From the text: as §1, §2

Take `CCc1cnc(N(CCNS(=O)(=O)c2cccc3c2CC(C(=O)O)C3)Cc2ccc(OC(F)(F)F)cc2)nc1` (stereo not drawn) [Example 1, 4-{2-[(5-Ethyl-pyrimidin-2-yl)-(4-trifluoromethoxy-benzyl}-amino]-ethylsulfamoyl)-indan-2-carboxylic acid]: the EC50 in test [1], in test [2] and in test [3] was < 5 µM each time.

With `CCc1cnc(N(CCNS(=O)(=O)c2cc(C)cc(CC(=O)O)c2)Cc2ccc(OC(F)(F)F)cc2)nc1` [Example 2, (3-{2-[(Ethyl-pyrimidin-2-yl)-(4-trifluoromethoxy-benzyl)-amino]-ethylsulfamoyl)-5-methyl-phenyl)-acetic acid], the EC50 in test [1], in test [2] and in test [3] was < 5 µM in each case.

With `CCCCCN(CCNS(=O)(=O)c1cccc2c1CC(C(=O)O)C2)Cc1ccc(OC(F)(F)F)cc1` (stereo not drawn) [Example 3, 4-{2-[Pentyl-(4-trifluoromethoxy-benzyl)-amino]-ethylsulfamoyl}-indan-2-carboxylic acid], the EC50 in test [1], in test [2] and in test [3] was < 5 µM each time.

For `CCCCCN(CCNS(=O)(=O)c1cc(C)cc(CC(=O)O)c1)Cc1ccc(OC(F)(F)F)cc1` [Example 4], the EC50 in test [1], in test [2] and in test [3] was < 5 µM each time.

On to `CCN(CCNS(=O)(=O)c1cc(C)cc(CC(=O)O)c1)Cc1ccc(OC(F)(F)F)cc1` [Example 5, (3-{2-[Ethyl-(4-trifluoromethoxy-benzyl}-amino]-ethylsulfamoyl)-5-methyl-phenyl)-acetic acid], for which the EC50 is 5 to 100 µM in test [1], < 5 µM in test [2] and < 5 µM in test [3].

Consider `CCCCN(CCNS(=O)(=O)c1cc(C)cc(CC(=O)O)c1)Cc1ccc(OC(F)(F)F)cc1` [Example 6, (3-{2-[Butyl-(4-trifluoromethoxy-benzyl)-amino]-ethylsulfamoyl}-5-methyl-phenyl)-acetic acid], for which the EC50 in test [1], in test [2] and in test [3] was < 5 µM throughout.

Consider `CCCCN(CCNS(=O)(=O)c1cccc2c1CC(C(=O)O)C2)Cc1ccc(OC(F)(F)F)cc1` (stereo not drawn) [Example 7, 4-{2-[Butyl-(4-trifluoromethoxy-benzyl)-amino]-ethylsulfamoyl}-indan-2-carboxylic acid], for which the EC50 in test [1], in test [2] and in test [3] was < 5 µM in each case.

`CCN(CCNS(=O)(=O)c1cccc2c1CC(C(=O)O)C2)Cc1ccc(OC(F)(F)F)cc1` (stereo not drawn) [Example 8]: the concentration giving a half-maximal response (EC50) in test [1], in test [2] and in test [3] was < 5 µM in each case.

Take `CCCc1c(OCCN(C)S(=O)(=O)c2cccc3c2CC(C(=O)O)C3)ccc(C(C)=O)c1O` (stereo not drawn) [Example 9, 4-(N-(2-(4-Acetyl-3-hydroxy-2-propylphenoxy)ethyl)-N-methylsulfamoyl)-2,3-dihydro-1H-indene-2-carboxylic acid]: the EC50 in test [1] was > 100 µM; in test [2] it was < 5 µM; in test [3] it was < 5 µM.

For the compound `CCCc1c(OCCN(C)S(=O)(=O)c2ccc3c(c2)C(C(=O)O)CC3)ccc(C(C)=O)c1O` (stereo not drawn) [Example 10, 6-(N-(2-(4-Acetyl-3-hydroxy-2-propylphenoxy)ethyl)-N-methylsulfamoyl)-2-dihydro-1H-indene-1-carboxylic acid], the EC50 in test [1], in test [2] and in test [3] was < 5 µM each time.

Consider `CCCc1c(OCCNS(=O)(=O)c2cccc3c2CC(C(=O)O)C3)ccc(C(C)=O)c1O` (stereo not drawn) [Example 11, 4-(N-(2-(4-Acetyl-3-hydroxy-2-propylphenoxy)ethyl)sulfamoyl)-2,3-dihydro-1H-indene-2-carboxylic acid], for which the EC50 in test [1] is > 100 µM; in test [2], < 5 µM; in test [3] it was < 5 µM.

Take `CCCc1c(OCCNS(=O)(=O)c2ccc3c(c2)CC(C(=O)O)C3)ccc(C(C)=O)c1O` (stereo not drawn) [Example 12, 5-(N-(2-(4-Acetyl-3-hydroxy-2-propylphenoxy)ethyl)sulfamoyl)-2,3-dihydro-1H-indene-2-carboxylic acid]: the 50% effective concentration (EC50) in test [1], in test [2] and in test [3] was 5 to 100 µM in each case.

`CCCc1c(OCCN(C)S(=O)(=O)c2ccc3c(c2)CC(C(=O)O)C3)ccc(C(C)=O)c1O` (stereo not drawn) [Example 13]: the values for the EC50 in test [1], in test [2] and in test [3] were > 100 µM, 5 to 100 µM and > 100 µM, respectively.

Regarding `CCCc1c(OCCN(C)S(=O)(=O)c2cccc3c2CC(C(=O)O)C3)ccc2c(C(F)(F)F)noc12` (stereo not drawn) [Example 14, 4-(N-methyl-N-(2-(7-propyl-3-(trifluoromethyl)benzo[d]isoxazol-6-yloxy)ethyl)sulfamoyl)-2,3-dihydro-1H-indene-2-carboxylic acid], the half-maximal effective concentration (EC50) in test [1], in test [2] and in test [3] was < 5 µM in each case.

For the compound `Cc1ccc(C(=NOCCN(C)S(=O)(=O)c2cccc3c2CC(C(=O)O)C3)c2ccc(C)cc2)cc1` (stereo not drawn) [Example 15, 4-(N-(2-(di-p-tolylmethyleneaminooxy)ethyl)-N-methylsulfamoyl)-2,3-dihydro-1H-indene-2-carboxylic acid], the EC50 in test [1] is > 100 µM; in test [2], > 100 µM; in test [3], < 5 µM.

As to `Cc1ccc(S(=O)(=O)N(C)CCON=C(c2ccc(C(F)(F)F)cc2)c2ccc(C(F)(F)F)cc2)cc1CC(=O)O` [Example 16], the EC50 in test [1], in test [2] and in test [3] was < 5 µM throughout.

`CN(CCON=C(c1ccc(C(F)(F)F)cc1)c1ccc(C(F)(F)F)cc1)S(=O)(=O)c1cccc2c1CC(C(=O)O)C2` (stereo not drawn) [Example 18, 4-(N-(2-(bis(4-(trifluoromethyl)phenyl)methyleneaminooxy)ethyl)-N-methylsulfamoyl)-2,3-dihydro-1H-indene-2-carboxylic acid]: the EC50 is > 100 µM in test [1], < 5 µM in test [2] and < 5 µM in test [3].

Take `CN(CCON=C(c1ccc(OC(F)(F)F)cc1)c1ccc(OC(F)(F)F)cc1)S(=O)(=O)c1cccc2c1CC(C(=O)O)C2` (stereo not drawn) [Example 19, 4-(N-(2-(bis(4-(trifluoromethoxy)phenyl)methyleneaminooxy)ethyl)-N-methylsulfamoyl)-2,3-dihydro-1H-indene-2-carboxylic acid]: the 50% effective concentration (EC50) in test [1] is > 100 µM; in test [2] it was < 5 µM; in test [3], < 5 µM.

Take `Cc1ccc(C(=NOCCN(C)S(=O)(=O)c2ccc(C)c(CC(=O)O)c2)c2ccc(C)cc2)cc1` [Example 20]: the EC50 in test [1], in test [2] and in test [3] was < 5 µM each time.
